Experimental data published in PMC10082830, “A tailored tetravalent peptide displays dual functions to inhibit amyloid β production and aggregation” (Communications Biology, 2023).
Ends that are not written are not given here.

Assays:
[1] = target: T1, Aβ42 (Homo sapiens, UniProt P05067); settings: equivalent molar concentration, after 8 h of incubation, Thioflavin T-binding assay; cited from earlier work
T1 construct: the plate was incubated with various concentrations of Aβ1–28, Aβ40, or Aβ42 (Peptide Institute); purchased Peptide Institute

[2] = test system: 7WD10 Chinse Hamster Ovary (CHO) cells stably expressing human APP; assay: Aβ production in 7WD10 cells, western blot of culture medium and cell lysates; assay type: cell-based, Chinese Hamster; settings: 48 h, tetravalent peptides 50 µM, LME-mono 100 and 200 µM, n = 3
Description: 7WD10 Chinse Hamster Ovary (CHO) cells were treated with each tetravalent peptide (50 µM) for 48 h; cell lysates (for intracellular C99 and Aβ) and culture medium (for extracellular Aβ) from peptide-treated and vehicle control-treated cells were analyzed by western blot. Data are graphed as the percentage of the control value, showing the mean ± SE; n = 3. Significance vs. vehicle was calculated by analysis of variance (ANOVA), followed by one-sided Dunnett’s test; *P < 0.05, **P < 0.01. c Effect of increasing concentrations of LME-tet on Aβ production (left panel). 7WD10 cells were treated with vehicle control or LME-tet at the indicated concentrations for 48 h, and the culture medium was analyzed by western blot. Data are graphed as the percentage of the control value, showing the mean ± SE; n = 3. Significance vs. vehicle was calculated by ANOVA, followed by one-sided Dunnett’s test; *P < 0.05, **P < 0.01. Effect of LME-mono on Aβ production (right panels). 7WD10 cells were treated with vehicle control or LME-mono at the indicated concentrations for 48 h; cell lysates (for intracellular C99 and Aβ) and culture medium (for extracellular Aβ) were analyzed by western blot. […] Significance vs. vehicle was calculated by ANOVA, followed by one-sided Dunnett’s test; *P < 0.05. d Binding of LME-tet and LME-mono to Aβ1-28, Aβ40 and Aβ42 was measured by enzyme-linked immunosorbent assay (ELISA). […]

[3] = test system: Aβ1–28; assay: ELISA binding between Aβ and LME peptides; settings: LME-tet (8.3 µM) or LME-mono (33 µM) applied on plate, Aβ 2 h at room temperature, n = 3
Description: (§1) The indicated amounts of LME-tet (8.3 µM) or LME-mono (33 µM) were applied onto each well of a regular 96-well ELISA plate (Thermo Fisher Scientific) and incubated overnight for 24 h. After blocking, the plate was incubated with various concentrations of Aβ1–28, Aβ40, or Aβ42 (Peptide Institute) for 2 h at room temperature. Bound Aβ was detected using mouse monoclonal anti-human Aβ antibody 82E1 (Immuno-Biological Laboratories Co., Ltd.) and HRP-conjugated horse anti-mouse IgG antibody (Cell Signaling Technology).

[4] = target: T2, Aβ40 (Homo sapiens, UniProt P05067); assay: ELISA binding between Aβ and LME peptides; settings: LME-mono (33 µM) applied on plate, n = 4
T2 construct: purchased Peptide Institute
Description: as §1

[5] = target: T1, Aβ42; assay: ELISA binding between Aβ and LME peptides; settings: LME-mono (33 µM) applied on plate, n = 3
Description: as §1

[6] = test system: 7WD10 cells; assay: Lysosomal protease inhibitor treatment of 7WD10 cells, western blot; assay type: cell-based, Chinese Hamster; settings: LME-tet (25 µM) or LME-mono (100 µM), lysosomal PI cocktail (E-64, leupeptin), 48 h
[7] = target: T1, Aβ42; assay: Circular dichroism spectroscopy of Aβ42 conformational change; settings: Aβ42 20 µM, peptide 2 µM, 50 mM sodium phosphate buffer pH 7.4, 37 °C, far-UV CD, molar ellipticity at 217 nm
Description: Fig. 5 LME-tet inhibits the conformational change and subsequent fibrillation of Aβ42. a Binding of LME-tet to extracellular Aβ. Culture medium from 7WD10 cells recovered after 48 h of growth was treated with biotinylated LME-tet (50 µM) or LME-mono (200 µM). Medium was then incubated with streptavidin beads, and coprecipitating Aβ40 and Aβ42 were analyzed by western blot using anti-Aβ or anti-Aβ42-specific antibody. b Time-dependent conformational change in Aβ42 (20 µM) in the presence of LME-tet (2 µM, lower left panel) or LME-mono (2 µM, upper right panel). Far-UV circular dichroism (CD) spectra (wavelength 190–250 nm) were measured at the indicated time points. […] Data represent the mean ± SE; n = 3–4. c Fibrillation profiles of Aβ42 in the presence of LME-tet (2 µM) or LME-mono (2 µM), measured by Thioflavin T-binding assay. […] Data represent the mean ± SE; n = 3. d Fibrillation profiles of Aβ42 in the presence of LME-tet (2 µM) or LME-mono (2 µM), analyzed by electron microscopy; representative images at ×10 K, ×50 K, and ×200 K magnification (left, right, and center, respectively) are shown. Scale bars indicate 2 µm, 400 nm, and 100 nm, respectively. e Effects of LME-tet (2 µM) on growth of Aβ42 fibril in the presence of 2% (v/v) Aβ42 fibril-seed, measured by the Thioflavin T-binding assay. […]

T1 sequence (P05067 672-713 limits assumed): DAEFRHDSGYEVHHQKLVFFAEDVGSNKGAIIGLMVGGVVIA
T2 sequence (P05067 672-711 limits assumed): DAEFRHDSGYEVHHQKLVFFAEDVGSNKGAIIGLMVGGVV

Substance	inhibition of fibrillation of Aβ42 [1] [%]	inhibitory effect on production of Aβ [2]	binding to Aβ1–28 [3]	binding to Aβ40 [4]	binding to Aβ42 [5]	PI-dependent increase of intracellular APP, C99, Aβ, p62 and LC3-II [6]	conformational change of Aβ42 (β-sheet formation) [7]
Ac-KL-NVF-NFA-NH2	40						
PKLRMKE [LME-mono, monomeric peptide with the same motif, Pro-Lys-Leu-Arg-Met-Lys-Glu]		has no effect	unable to bind	unable to bind	unable to bind	does not affect	no effect was observed
